In ChEMBL document CHEMBL3244099, “Various 5-substituted and 2,5-disubstituted 1,3-dioxanes, a new class of analgesic agents” (1977):

Key:
Assay type in all cases: functional
Rattus norvegicus [1] = assay: Analgesic activity in sc dosed rat assessed as dose required for 2 times increase in reaction time after 15 mins by tail jerk test relative to control
Mus musculus = species on record: Mus musculus; assay: animal or person
Description: Analgesic activity in sc dosed mouse assessed as inhibition of acetic acid-induced writhing after 15 to 30 mins

Rattus norvegicus [2] = assay: Analgesic activity in sc dosed rat assessed as dose required for 2 times increase in reaction time after 30 mins by tail jerk test relative to control
[3] = Mus musculus, sc, read-out: ED50

Row | SMILES | ED50 (Mus musculus; [3]) | other results
1 | CN(C)C(c1ccccc1)C1COCOC1.Cl (racemic) |  | ED (Rattus norvegicus [1]): 4 mg/kg; ED50 (Mus musculus): 14 mg/kg
2 | CCC1(c2ccccc2)OCC(C(c2ccccc2)N(C)C)CO1.O=C(O)/C=C\C(=O)O (racemic) | > 50 mg/kg | 
3 | Cl.c1ccc(C(C2COCOC2)N2CCOCC2)cc1 (stereo not given) | > 50 mg/kg | 
4 | CNC(c1ccccc1)C1COCOC1.Cl (stereo not given) | 21 mg/kg | 
5 | CC(C)C1OCC(C(c2ccccc2)N(C)C)CO1.Cl (racemic) | > 50 mg/kg | 
6 | CN(C)C(c1ccc(Cl)cc1)C1COCOC1.Cl (stereo not given) | 32 mg/kg | 
7 | CC1OCOCC1C(c1ccccc1)N(C)C.Cl (stereo not given) | 32 mg/kg | 
8 | CN(C)C(c1ccccc1)C1COCOC1.Cl (stereo in doubt; (-)-4a) |  | ED (Rattus norvegicus [1]): 2.4 mg/kg; ED50 (Mus musculus): 6.2 mg/kg
9 | CN(C)C(c1cccnc1)C1COCOC1.Cl (stereo in doubt; (+)-4o) |  | ED (Rattus norvegicus [1]): >80 mg/kg; ED50 (Mus musculus): >50 mg/kg
10 | CN(C)C(c1cccnc1)C1COCOC1.Cl (racemic) |  | ED (Rattus norvegicus [1]): 9.6 mg/kg; ED50 (Mus musculus): 6.1 mg/kg
11 | C=CCN(C)C(c1ccccc1)C1COCOC1.Cl (stereo not given) | > 50 mg/kg | 
12 | CN(C)C(c1ccc(OCc2ccccc2)cc1)C1COCOC1.Cl (stereo not given) | > 50 mg/kg | 
13 | CN(C)C(c1cccc(O)c1)C1COCOC1.Cl (stereo not given) | > 50 mg/kg | 
14 | CN(C)C(c1cccc(OCc2ccccc2)c1)C1COCOC1.Cl (stereo not given) | > 50 mg/kg | 
15 | Cc1ccc(C(C2COCOC2)N(C)C)cc1.O=C(O)/C=C\C(=O)O (stereo not given) | 20 mg/kg | ED (Rattus norvegicus [1]): 7.9 mg/kg
16 | CN(C)C(c1ccccc1)C1COCOC1.Cl (stereo in doubt; (+)-4a) |  | ED (Rattus norvegicus [1]): 69 mg/kg; ED50 (Mus musculus): >50 mg/kg
17 | CN(C)C(c1ccc(Cl)cc1Cl)C1COCOC1.Cl (stereo not given) | > 50 mg/kg | 
18 | CN(C)C(c1cccnc1)C1COCOC1.Cl (stereo in doubt; (-)-4o) |  | ED (Rattus norvegicus [1]): 5.7 mg/kg; ED50 (Mus musculus): 3.6 mg/kg
19 | CCN(CC)C(c1ccccc1)C1COCOC1.[O-][Cl+3]([O-])([O-])O (stereo not given) | > 50 mg/kg | 
20 | Cc1ccc(C(C2COC(C)OC2)N(C)C)cc1.Cl (racemic) | 2.9 mg/kg | ED (Rattus norvegicus [1]): 7.9 mg/kg
21 | CC(=O)Oc1ccc(C(C2COCOC2)N(C)C)cc1.Cl (stereo not given) | 11 mg/kg | ED (Rattus norvegicus [1]): 7.3 mg/kg

Row | SMILES | ED50 (Mus musculus; [3]) | other results
22 | CN1CC[C@]23c4c5ccc(O)c4O[C@H]2[C@@H](O)C=C[C@H]3[C@H]1C5.CN1CC[C@]23c4c5ccc(O)c4O[C@H]2[C@@H](O)C=C[C@H]3[C@H]1C5.O=S(=O)(O)O | 0.97 mg/kg | 
23 | CN(C)C(c1ccccc1)C1COC(C2CCCCC2)OC1.Cl (racemic) | > 50 mg/kg | 
24 | CN(C)C(c1ccc(O)cc1)C1COCOC1.Cl (stereo not given) | 13 mg/kg | ED (Rattus norvegicus [1]): 12 mg/kg
25 | Cl.NC(c1ccccc1)C1COCOC1 (stereo not given) | > 50 mg/kg | 
26 | CN(C)C(c1ccncc1)C1COCOC1.O=C(O)/C=C\C(=O)O (stereo not given) | > 50 mg/kg | 
27 | CN(C)C(c1ccccn1)C1COCOC1.O=C(O)/C=C\C(=O)O (stereo not given) | > 50 mg/kg | 
28 | CN(C)C(c1ccccc1Cl)C1COCOC1.Cl (stereo not given) | 48 mg/kg | 
29 | COc1cccc(C(C2COCOC2)N(C)C)c1.O=C(O)/C=C\C(=O)O (stereo not given) | > 50 mg/kg | 
30 | Cl.c1ccc(C(C2COCOC2)N2CCCC2)cc1 (stereo not given) | > 50 mg/kg | 
31 | CN(C)C(c1cccc(Cl)c1)C1COCOC1.O=C(O)/C=C\C(=O)O (stereo not given) | > 50 mg/kg | 
32 | COc1ccc(C(C2COCOC2)N(C)C)cc1.Cl (stereo not given) | > 50 mg/kg | 
33 | CN(C)C(c1ccccc1)C1COC(C2CCCC2)OC1 (racemic) | 45 mg/kg | 
34 | Cc1cccc(C(C2COCOC2)N(C)C)c1.O=C(O)/C=C\C(=O)O (stereo not given) | > 50 mg/kg | 
35 | Cc1ccccc1C(C1COCOC1)N(C)C.Cl (stereo not given) | 39 mg/kg | 
36 | CC1OCC(C(c2ccccc2)N(C)C)CO1 (racemic) | 3.9 mg/kg | ED (Rattus norvegicus [1]): 6.3 mg/kg
37 | Cl.Clc1ccc(C(C2COCOC2)N2CCCCC2)cc1 (stereo not given) | 33 mg/kg | 
38 | CN(C)C(c1ccc(F)cc1)C1COCOC1.Cl (stereo not given) | 30 mg/kg | 
39 | CCOC(=O)C1(c2ccccc2)CCN(C)CC1.Cl [MEPERIDINE HYDROCHLORIDE] | 2.9 mg/kg | ED (Rattus norvegicus [1]): 1.9 mg/kg
40 | CN(C)C(c1ccccc1)C1(C)COCOC1.Cl (stereo not given) | > 50 mg/kg | 
41 | COc1ccc2c3c1O[C@H]1[C@@H](O)C=C[C@H]4[C@@H](C2)N(C)CC[C@@]341.O=S(=O)(O)O | 6.7 mg/kg | ED (Rattus norvegicus [2]): 4.2 mg/kg
42 | CCC1OCC(C(c2ccccc2)N(C)C)CO1 (racemic) | 19 mg/kg | 
